Measurements reported in patent US6369057B1, “Quinoxalines, processes for their preparation and their use” (Aventis Pharma Deutschland GmbH, priority 1991, dated 2002).
Converted amounts (≈) assume the structure as drawn.

What was measured:
HIV = assay: Test of preparations against HIV in cell culture (T-cell culture assay); format: cell-based; details: Human immunodeficiency virus 1, 72 h; lowest concentration where no giant cells were observed; HIV-infected lymphocytes from donor blood, 3 days at 37° C.
[1] = target: T1, HIV reverse transcriptase (RT) (Human immunodeficiency virus type 1 group M subtype B, UniProt P03366); assay: Assay for HIV reverse transcriptase inhibition (scintillation proximity assay); format: biochemical; details: RT from HIV cloned in E. coli; SPA, 60 minutes (37° C.); read-out: Reverse Transcriptase Assay IC50 (converted)
T1 construct: The enzyme RT (from HIV cloned in E. coli); purchased HT-Biotechnology Ltd, Cambridge, UK; host or cells: E. coli

SMILES: C=C(C)OC(=O)N1c2cc(Cl)ccc2NC(=S)[C@@H]1C [XXIII, (3S)-6-Chloro-4-N-(isopropenyloxycarbonyl)-3-methyl-3,4-dihydroquinoxaline-2(1H)-thione]
- MIC (HIV): < 0.01 µg/mL
- IC50 [1]: 84.2 nM
- melting point: 148 to 150 °C

SMILES: C=COC(=O)N1c2cc(Cl)ccc2NC(=O)[C@@H]1C [XIV, (3S)-6-Chloro-3-methyl-4-N-(vinyloxycarbonyl)-3,4-di-hydroquinoxalin-2(1H)-one]
- MIC (HIV): < 0.16 µg/mL
- IC50 [1]: 600 nM
- melting point: 177 to 179 °C

SMILES: C[C@H]1C(=O)Nc2c(N)cc(Cl)cc2N1C(=O)OCc1ccccc1 [Example V, (3S)-8-Amino-4-N-(benzyloxycarbonyl)-6-chloro-3-methyl-3,4-dihydroquinoxalin-2(1H)-one]
- IC50 [1]: 21700 nM
- melting point: 152 to 154 °C

SMILES: CC=CCN1c2cc(Cl)ccc2NC(=O)[C@@H]1C [VII, (3S)-6-Chloro-3-methyl-4-N-(2-buten-1-yl)-3,4-dihydroquinoxalin-2(1H)-one]
- MIC (HIV): < 0.16 µg/mL
- IC50 [1]: 399 nM
- melting point: 87 to 88 °C

SMILES: C[C@H]1C(=O)Nc2ccc(Cl)cc2N1C(=O)OCCBr [Example XII, (3S)-4-N-(2-Bromoethyloxycarbonyl)-6-chloro-3-methyl-3,4-dihydroquinoxalin-2(1H)-one]
- MIC (HIV): < 0.8 µg/mL
- melting point: 133 to 136 °C

SMILES: CC(C)=CCN1c2cc(Cl)ccc2NC(=O)[C@@H]1C [VI-A, (3S)-6-Chloro-3-methyl-4-N-(3-methyl-2-buten-1-yl)-3,4-dihydroquinoxalin-2(1H)-one]
- MIC (HIV): 0.16 µg/mL (≈ 0.604 µM)
- IC50 [1]: 302 nM
- melting point: 117 to 118 °C
